# Test results taken from US8399378B2, “Use of neonicotinoids in pest control” (Syngenta Crop Protection LLC, priority 1998, dated 2013).
# Legend:
# Type in all cases: in vivo
# Spodoptera littoralis = experiment: Spray test on young cotton plants, action against Spodoptera littoralis larvae
# Anthonomus grandis = experiment: Spray test on young cotton plants, action against Anthonomus grandis adults; conditions: non-transgenic cotton treated with compound and conventional CryIIIA-toxin, each 100, 50, 10, 5, 1 ppm
# [1] = test system: Frankliniella occidentalis; experiment: Cotton seedling spray test, action against Frankliniella occidentalis; conditions: 20° C, 3 and 6 days; for control (percentage reduction in population, % action): spray 400 ppm; for control level: plot (b) conventional cotton seedlings, 400 ppm compound
# Method: Cotton seedlings expressing the δ-endotoxin CryIIIa on a plot (a) and conventional cotton seedlings on a plot (b) are infected with Frankliniella occidentalis and subsequently sprayed with a spray mixture comprising 400 ppm thiamethoxam. Immediately afterwards, plot (b) is treated with an emulsion spray mixture comprising 400 ppm of the δ-endotoxin CryIIIa. The seedlings of plot (a) and (b) are then incubated at 20° C. The test is evaluated after 3 and 6 days.
# (§1) The percentage reduction in population (% action) is determined by comparing the number of dead pests on the plants of plot (a) with that on the plants of plot (b).
# Cotton seedlings expressing the δ-endotoxin CryIa(c) on a plot (a) and conventional cotton seedlings on a plot (b) are infected with Frankliniella occidentalis and subsequently sprayed with a spray mixture comprising 400 ppm thiamethoxam. Immediately afterwards, plot (b) is treated with an emulsion spray mixture comprising 400 ppm of the δ-endotoxin CryIa(c). The seedlings of plot (a) and (b) are then incubated at 20° C. The test is evaluated after 3 and 6 days.
# Heliothis virescens = experiment: Spray test on young cotton plants, action against Heliothis virescens larvae; conditions: non-transgenic cotton treated with compound and conventional CryIIIA-toxin, each 100, 50, 10, 5, 1 ppm
# Nephotettix cincticeps = experiment: Rice plant spray test, action against Nephotettix cincticeps; conditions: 20° C, 21 days; for control (percentage reduction in population, % action): spray 400 ppm, 2nd and 3rd stages; for control level: plot (b) conventional rice plants, 400 ppm compound
# Method: Rice plants on a plot (a) expressing the δ-endotoxin CryIA(b) and conventional rice plants on a plot (b) are sprayed with a spray mixture comprising 400 ppm thiamethoxam. Immediately afterwards, plot (b) is treated with an emulsion spray mixture comprising 400 ppm of the δ-endotoxin CryIA(b). After the spray coating has dried on, the plants are infected with Nephotettix cincticeps of the 2nd and 3rd stages. The seedlings of plot (a) and (b) are then incubated at 20° C. The test is evaluated after 21 days.
# as §1
# Rice plants on a plot (a) expressing the δ-endotoxin CryIA(c) and conventional rice plants on a plot (b) are sprayed with a spray mixture comprising 400 ppm thiamethoxam. Immediately afterwards, plot (b) is treated with an emulsion spray mixture comprising 400 ppm of the δ-endotoxin CryIA(c). After the spray coating has dried on, the plants are infected with Nephotettix cincticeps of the 2nd and 3rd stages. The seedlings of plot (a) and (b) are then incubated at 20° C. The test is evaluated after 21 days.
# Nilaparvata lugens = experiment: Rice plant spray test, action against Nilaparvata lugens; conditions: 20° C, 21 days; for control (percentage reduction in population, % action): infected, then spray 400 ppm; for control level: plot (b) conventional rice plants, 400 ppm compound
# Method: Rice plants on a plot (a) expressing the δ-endotoxin CryIA(b) and conventional rice plants on a plot (b) are infected with Nilaparvata lugens, subsequently sprayed with a spray mixture comprising 400 ppm thiamethoxam. Immediately afterwards, plot (b) is treated with an emulsion spray mixture comprising 400 ppm of the δ-endotoxin CryIA(b). The seedlings of plot (a) and (b) are then incubated at 20° C. The test is evaluated after 21 days.
# as §1
# Rice plants on a plot (a) expressing the δ-endotoxin CryIA(c) and conventional rice plants on a plot (b) are infected with Nilaparvata lugens, subsequently sprayed with a spray mixture comprising 400 ppm thiamethoxam. Immediately afterwards, plot (b) is treated with an emulsion spray mixture comprising 400 ppm of the δ-endotoxin CryIA(c). The seedlings of plot (a) and (b) are then incubated at 20° C. The test is evaluated after 21 days.
# Ostrinia nubilalis = experiment: Maize plot spray test (KnockOut vs conventional maize), action against Ostrinia nubilalis; conditions: 6 days
# Method: (§2) A plot (a) planted with maize cv. KnockOut® and an adjacent plot (b) of the same size which is planted with conventional maize, both showing natural infestation with Ostrinia nubilalis, Spodoptera spp. or Heliothis, are sprayed with an aqueous emulsion spray mixture comprising 200, 100, 50, 10, 5, 1 ppm of Ti-435. Immediately afterwards, plot (b) is treated with an emulsion spray mixture comprising 200, 100, 50, 10, 5, 1 ppm of the endotoxin expressed by KnockOut®. Evaluation takes place 6 days later. The percentage reduction in population (% action) is determined by comparing the number of dead pests on the plants of plot (a) with that on the plants of plot (b).
# as §2, with “thiamethoxam.” for “Ti-435.”
# as §2, with “imidacloprid.” for “Ti-435.”
# [2] = comparison arm for CryIIIA cotton
# [3] = comparison arm for CryIa(c) cotton
# [4] = plot (a) rice plants expressing δ-endotoxin CryIA(b)
# [5] = plot (a) rice plants expressing δ-endotoxin CryIA(c)
# [6] = then 400 ppm δ-endotoxin CryIA(b)
# [7] = then 400 ppm δ-endotoxin CryIA(c)
compound,measurement,setting,value
"CN1COCN(Cc2cnc(Cl)s2)/C1=N\[N+](=O)[O-] [thiamethoxam, 5-(2-Chlorthiazol-5-ylmethyl)-3-methyl-4-nitroimino-perhydro-1,3,5-oxadiazin]","control of the tested insects (percentage reduction in population or feeding damage, % action)","Spodoptera littoralis; non-transgenic cotton treated with compound and conventional CryIIIA-toxin, each 100, 50, 10, 5, 1 ppm, comparison arm for CryIIIA cotton",insufficient
same,"control of the tested insects (percentage reduction in population or feeding damage, % action)","Spodoptera littoralis; transgenic cotton expressing δ-endotoxin CryIIIA, spray 100, 50, 10, 5, 1 ppm, evaluation 3 to 10 days, compared with non-transgenic plant",superior
same,"control of the tested insects (percentage reduction in population or feeding damage, % action)",Anthonomus grandis; [2],insufficient
same,"control of the tested insects (percentage reduction in population or feeding damage, % action)",Anthonomus grandis; [3],insufficient
same,"control (percentage reduction in population, % action)",[1]; plot (a) cotton seedlings expressing δ-endotoxin CryIIIa,Improved control
same,"control (percentage reduction in population, % action)",[1]; plot (a) cotton seedlings expressing δ-endotoxin CryIa(c),Improved control
same,control level,[1]; then 400 ppm δ-endotoxin CryIIIa,≤ 60%
same,control level,[1]; then 400 ppm δ-endotoxin CryIa(c),≤ 60%
same,"control of the tested insects (percentage reduction in population or feeding damage, % action)",Heliothis virescens; [2],insufficient
same,"control of the tested insects (percentage reduction in population or feeding damage, % action)",Heliothis virescens; [3],insufficient
same,"control (percentage reduction in population, % action)",Nephotettix cincticeps; [4],Improved control
same,"control (percentage reduction in population, % action)",Nephotettix cincticeps; [5],Improved control
same,control level,Nephotettix cincticeps; [6],≤ 60%
same,control level,Nephotettix cincticeps; [7],≤ 60%
same,"control (percentage reduction in population, % action)",Nilaparvata lugens; [4],Improved control
same,"control (percentage reduction in population, % action)",Nilaparvata lugens; [5],Improved control
same,control level,Nilaparvata lugens; [6],≤ 60%
same,control level,Nilaparvata lugens; [7],≤ 0%
same,"control (percentage reduction in population, % action)","Ostrinia nubilalis; plot (a) maize cv. KnockOut, spray 200, 100, 50, 10, 5, 1 ppm, natural infestation",Improved control
same,control level,"Ostrinia nubilalis; plot (b) conventional maize, compound 200, 100, 50, 10, 5, 1 ppm, then same ppm of the endotoxin expressed by KnockOut",≤ 60%
